Literature values, collected in PMC5143208 (American journal of transplantation : official journal of …, 2016).

Tested on: CCR2
Conditions: in vitro

## d(LGTFLKC) [ECL1i]
  binding to CCR2: selectively bind CCR2 in a non-competitive way
